# Measured values taken from patent publication US9394305B2, “Substituted imidazo[1,2-a]pyridine compounds as tropomyosin receptor kinase a (TrkA) inhibitors” (Dr. Reddy's Laboratories Ltd., priority 2014, dated 2016).
# Target: T1, TrkA kinase (Homo sapiens, UniProt P04629)
# T1 construct: purchased Upstate, USA
# Assay: In vitro TrkA inhibitory activity using TR-FRET assay
# Format: biochemical
# Details: 5 ng TrkA, 500 μM ATP, values given as bins, read-out: TrkA inhibition in-vitro IC50
# Method in brief: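 TrkA kinase (5 ng) was preincubated 30 min at 20-35° C. with compound (1% DMSO final), then 40 nM ULight poly GT and 500 μM ATP were added for 30 min before an EDTA stop. Phosphorylation was detected by Eu anti-phosphotyrosine TR-FRET (ex 340, em 615/665 nm), and IC50 came from sigmoidal fits of 1/3 serial dilutions.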
# T1 sequence (P04629 33-796): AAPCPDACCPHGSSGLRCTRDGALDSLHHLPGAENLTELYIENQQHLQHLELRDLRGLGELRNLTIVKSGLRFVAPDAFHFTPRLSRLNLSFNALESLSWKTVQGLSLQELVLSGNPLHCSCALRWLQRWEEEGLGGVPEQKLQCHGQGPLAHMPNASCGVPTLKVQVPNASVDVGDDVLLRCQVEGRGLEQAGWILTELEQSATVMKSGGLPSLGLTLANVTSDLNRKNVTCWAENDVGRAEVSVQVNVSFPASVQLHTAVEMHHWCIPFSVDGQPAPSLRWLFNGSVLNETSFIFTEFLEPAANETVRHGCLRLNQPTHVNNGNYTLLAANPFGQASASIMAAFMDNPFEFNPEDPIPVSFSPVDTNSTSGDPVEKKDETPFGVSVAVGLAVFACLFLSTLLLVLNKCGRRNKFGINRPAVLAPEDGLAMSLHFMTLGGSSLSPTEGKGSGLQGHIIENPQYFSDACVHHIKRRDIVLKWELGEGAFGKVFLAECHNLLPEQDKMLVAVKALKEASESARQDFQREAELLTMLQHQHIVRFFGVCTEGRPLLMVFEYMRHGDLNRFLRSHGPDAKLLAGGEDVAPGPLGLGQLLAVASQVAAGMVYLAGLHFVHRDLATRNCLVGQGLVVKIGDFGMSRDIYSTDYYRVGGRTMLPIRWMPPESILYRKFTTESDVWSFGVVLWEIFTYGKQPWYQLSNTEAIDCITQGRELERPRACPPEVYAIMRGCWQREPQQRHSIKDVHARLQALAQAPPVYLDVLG
row,IC50 [nM],Compound
1,50 to 100,"Cc1nnc(N(C)S(=O)(=O)NC(=O)c2cnc3ccc(N4C[C@@H](F)C[C@@H]4c4cc(F)ccc4OC4CCOCC4)cn23)s1 [Example 98, 6-((2R,4S)-4-fluoro-2-(5-fluoro-2-((tetrahydro-2H-pyran-4-yl)oxy)phenyl)pyrrolidin-1-yl)-N—(N-methyl-N-(5-methyl-1,3,4-thiadiazol-2-yl)sulfamoyl)imidazo[1,2-a]pyridine-3-carboxamide]"
2,≤ 50,"COCCN(C)S(=O)(=O)NC(=O)c1cnc2ccc(N3C[C@@H](F)C[C@@H]3c3cc(F)ccc3OC3CCOCC3)cn12 [Example 89, 6-((2R,4S)-4-fluoro-2-(5-fluoro-2-((tetrahydro-2H-pyran-4-yl)oxy)phenyl)pyrrolidin-1-yl)-N—(N-(2-methoxyethyl)-N-methylsulfamoyl)imidazo[1,2-a]pyridine-3-carboxamide]"
3,≤ 50,"CC(C)(C)S(=O)(=O)NC(=O)c1cnc2ccc(N3C[C@@H](F)C[C@@H]3c3cc(F)ccc3OCCF)cn12 [Example 58, N-(tert-butylsulfonyl)-6-((2R,4S)-4-fluoro-2-(5-fluoro-2-(2-fluoroethoxy)phenyl)pyrrolidin-1-yl)imidazo[1,2-a] pyridine-3-carboxamide]"

# The remaining lines, values behind:
row,Compound,IC50 [nM]
1,"CN(c1nccs1)S(=O)(=O)NC(=O)c1cnc2ccc(N3CCC[C@@H]3c3cc(F)ccc3F)cn12 [Example 48, (R)-6-(2-(2,5-difluorophenyl)pyrrolidin-1-yl)-N-(N-methyl-N-(thiazol-2-yl)sulfamoyl)imidazo[1,2-a]pyridine-3-carboxamide]",≤ 50
2,"CN(c1cnccn1)S(=O)(=O)NC(=O)c1cnc2ccc(N3CCC[C@@H]3c3cc(F)ccc3F)cn12 [Example 45, (R)-6-(2-(2,5-difluorophenyl)pyrrolidin-1-yl)-N-(N-methyl-N-(pyrazin-2-yl)sulfamoyl)imidazo[1,2-a]pyridine-3-carboxamide]",≤ 50
